For one data set, the system named is male dd-strain rats. The data set can be described thus: Acute toxicity test (minimum lethal dose). Type of data set: in vivo. Conditions: mortality for 7 days. On the procedure: Groups of male dd-strain rats (each group consisting of five rats) weighing 20±1 g were used. The compounds of the present invention were administered orally (po: 0.3 mg/g) or intraperitoneally (ip: 0.1 mg/g). The MLD (minimum lethal dose) was calculated from the mortality for 7 days after the administration to obtain the results given in Table 1.

The test system of data set [1] is isolated ileum of guinea-pig. The data set can be described thus: Test for anticholinergic effects on the isolated ileum of guinea-pig (acetylcholine contraction, in vitro). Conditions: Cavia porcellus, 0.05 h; depressing ratio of 80% or more of acetylcholine contraction; compound 3 minutes before; read-out: Anticholinergic activity: MED (minimum effective dose). Further details: species or system guinea-pig (male Hartly-strain). In outline: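 Ileum segments from male Hartley guinea-pigs (~250 g), 2-3 cm, in Tyrode's at 32±1° C, aerated. Contraction evoked by acetylcholine (0.1 ml of 10^-3 g/ml), recorded by kymograph, before and 3 minutes after test compound addition.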

The subject of data set [2] is isolated ileum of guinea-pig. The data set can be described thus: Test for antihistaminergic effects on the isolated ileum of guinea-pig (histamine contraction, in vitro). Further details: species or system guinea-pig (male Hartly-strain). Conditions: Cavia porcellus, 0.05 h; depressing ratio of 80% or more of histamine contraction; read-out: Antihistaminergic activity: MED. In a few lines: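 Ileum segments from male Hartley guinea-pigs (~250 g) suspended in Tyrode's solution at 32±1 °C, contractions recorded on kymograph. Test compound given 3 min before agonist challenge with 0.1 ml histamine at 5×10^-3 g/l.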

Data set [3] deals with blood platelets (platelet-rich plasma). The data set can be described thus: Test for the inhibition of platelet aggregation (collagen-induced, platelet-rich plasma). Type of data set: cell-based, male white rabbits. The settings on record: Oryctolagus cuniculus, Platelet, 0.05 h; depressing ratio of 50% of collagen-induced aggregation; compound 3 minutes before; read-out: Antiplatelet aggregation activity: MED. In outline:
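Citrated carotid blood from male white rabbits (2–2.5 kg) spun at 1,000 rpm for 15 min to give PRP. Compound added 3 min before collagen, dosed to give 50% aggregation in the presence of 100 γ/ml aspirin; aggregation followed by aggregometer, activity scored as 50% depression versus collagen alone.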

A further data set can be described thus: Antiasthmatic activity. Type of data set: in vivo. The settings on record: po; read-out: Antiasthmatic activity: MED.

Consider `Fc1ccc2c(c1)C(NC1CN3CCC1CC3)c1ccccc1CO2` (stereo not drawn) [Compound 22, 2-fluoro-11-(3-quinuclidinyl)amino-6,11-dihydrodibenz[b,e]oxepin], for which the “Acute toxicity: MLD (minimum lethal dose)” value (from here on “Acute toxicity: MLD”) in the data set on male dd-strain rats (ip) came to 100 mg/kg; with male dd-strain rats (po), 300 mg/kg. The minimal effective concentration is 0.3 µg/mL in data set [1], 0.3 µg/mL in data set [2] and 100 µg/mL in data set [3]. Moreover, in the data set “Antiasthmatic activity”, the minimal effective dose came out at 50 mg/kg.
With `Clc1ccc2c(c1)C(NC1CN3CCC1CC3)c1ccccc1CO2` (stereo not drawn) [Compound 23, 2-chloro-11-(3-quinuclidinyl)amino-6,11-dihydrodibenz[b,e]oxepin], the “Acute toxicity: MLD” value came out at 100 mg/kg in the data set on male dd-strain rats (ip) and 300 mg/kg with male dd-strain rats (po). Also, the minimal effective concentration in data set [1] came to 1 µg/mL; in data set [2], 0.3 µg/mL; in data set [3], 100 µg/mL. For the same compound, the minimal effective dose in “Antiasthmatic activity” came out at 50 mg/kg.
As for `COc1ccc2c(c1)C(NC1CN3CCC1CC3)c1ccccc1CO2` (stereo not drawn) [Compound 24, 2-methoxy-11-(3-quinuclidinyl)amino-6,11-dihydrodibenz[b,e]oxepin], the “Acute toxicity: MLD” value in the data set on male dd-strain rats (ip) is recorded as 100 mg/kg; in the data set with male dd-strain rats (po), 200 mg/kg. Further, the minimal effective concentration in data set [1] is 0.3 µg/mL; in data set [2], 0.1 µg/mL; in data set [3] it was 100 µg/mL. Also, the minimal effective dose in the data set “Antiasthmatic activity” was determined as 50 mg/kg.
Consider `CCN1CCCC1CNC1c2ccccc2COc2ccc(C)cc21` (stereo not drawn) [Compound 28, 2-methyl-11-{(1-ethyl-2-pyrrolidinyl)methyl}-amino-6,11-dihydrodibenz[b,e]oxepin], for which the “Acute toxicity: MLD” value in the data set with male dd-strain rats (ip) is listed as 100 mg/kg; in the data set with male dd-strain rats (po) it was 300 mg/kg. Moreover, the minimal effective concentration came to 1 µg/mL in data set [1], 1 µg/mL in data set [2] and 50 µg/mL in data set [3]. Moreover, the minimal effective dose in the data set “Antiasthmatic activity” turned out to be 25 mg/kg.
On to `CCc1ccc2c(c1)C(NCCN1CCCCC1)c1ccccc1CO2` (stereo not drawn) [Compound 35, 2-ethyl-11-(2-piperidinoethyl)amino-6,11-dihydrodibenz[b,e]oxepin], for which the “Acute toxicity: MLD” value with male dd-strain rats (ip) is above 100 mg/kg; in the data set on male dd-strain rats (po), 300 mg/kg. Also, the minimal effective concentration amounted to 3 µg/mL in data set [1], 1 µg/mL in data set [2] and 20 µg/mL in data set [3]. In addition, the minimal effective dose in “Antiasthmatic activity” is 25 mg/kg.
On to `CCc1ccc2c(c1)C(N1CCN(CCO)CC1)c1ccccc1CO2` (stereo not drawn) [Compound 38, 2-ethyl-11-{4-(2-hydroxyethyl)-1-piperazinyl}-6,11-dihydrodibenz[b,e]oxepin], for which the results for the “Acute toxicity: MLD” value in the data set on male dd-strain rats (ip) and in the data set on male dd-strain rats (po) were above 100 mg/kg and above 300 mg/kg, respectively. Besides, the minimal effective concentration in data set [1] came to 1 µg/mL; in data set [2], 1 µg/mL; in data set [3], 100 µg/mL. Moreover, the minimal effective dose in “Antiasthmatic activity” was determined as 100 mg/kg.
For the compound `OCCN1CCN(C2c3ccccc3COc3ccc(F)cc32)CC1` (stereo not drawn) [Compound 39, 2-fluoro-11-{4-(2-hydroxyethyl)-1-piperazinyl}-6,11-dihydrodibenz[b,e]oxepin], the results for the “Acute toxicity: MLD” value in the data set with male dd-strain rats (ip) and in the data set on male dd-strain rats (po) were 100 mg/kg and above 300 mg/kg, respectively. Further, the results for the minimal effective concentration in data set [1], in data set [2] and in data set [3] were 1 µg/mL, 10 µg/mL and 50 µg/mL, respectively. In addition, in the data set “Antiasthmatic activity”, the minimal effective dose was found to be 100 mg/kg.
Turning to `CCC(C)c1ccc2c(c1)C(NC1CN3CCC1CC3)c1ccccc1CO2` (stereo not drawn) [Compound 51, 2-(1-methyl)propyl-11-(3-quinuclidinyl)amino-6,11-dihydrodibenz[b,e]oxepin], the “Acute toxicity: MLD” value with male dd-strain rats (ip) was 100 mg/kg; with male dd-strain rats (po), above 300 mg/kg. Also, the minimal effective concentration stood at 1 µg/mL in data set [1], 0.3 µg/mL in data set [2] and 50 µg/mL in data set [3]. The minimal effective dose in the data set “Antiasthmatic activity” was 50 mg/kg.
As for `CC(C)(C)c1ccc2c(c1)C(NC1CN3CCC1CC3)c1ccccc1CO2` (stereo not drawn) [Compound 52, 2-(1,1-dimethyl)ethyl-11-(3-quinuclidinyl)amino-6,11-dihydrodibenz[b,e]oxepin], the “Acute toxicity: MLD” value in the data set on male dd-strain rats (ip) was 100 mg/kg; in the data set with male dd-strain rats (po), above 300 mg/kg. Moreover, the minimal effective concentration in data set [1] was 3 µg/mL; in data set [2], 0.3 µg/mL; in data set [3], 1 µg/mL. Further, the minimal effective dose in “Antiasthmatic activity” worked out at 50 mg/kg.
`Cc1ccc2c(c1)C(NCCN1CCCC1)c1ccccc1CO2` (stereo not drawn) [Compound 58, 2-methyl-11-{2-(1-pyrrolidinyl)ethyl}amino-6,11-dihydrodibenz[b,e]oxepin]: the “Acute toxicity: MLD” value in the data set with male dd-strain rats (ip) is above 100 mg/kg; in the data set on male dd-strain rats (po), 300 mg/kg. For the same compound, the figures for the minimal effective concentration in data set [1], in data set [2] and in data set [3] were 3 µg/mL, 0.1 µg/mL and 50 µg/mL, respectively. The minimal effective dose in “Antiasthmatic activity” came out at 25 mg/kg.
Regarding `CCc1ccc2c(c1)C(N1CCN(C)CC1)c1ccccc1CO2` (stereo not drawn) [Compound 66, 2-ethyl-11-(4-methyl-1-piperazinyl)-6,11-dihydrodibenz[b,e]oxepin], the “Acute toxicity: MLD” value in the data set with male dd-strain rats (ip) was above 100 mg/kg; in the data set on male dd-strain rats (po), above 300 mg/kg. Further, the minimal effective concentration in data set [1] is 10 µg/mL; in data set [2] it was 1 µg/mL; in data set [3] it was 50 µg/mL. For the same compound, the minimal effective dose in the data set “Antiasthmatic activity” amounted to 10 mg/kg.
As for `Cc1ccc2c(c1)C(N1CCN(C)CC1)c1ccccc1CO2` (stereo not drawn) [Compound 67, 2-methyl-11-(4-methyl-1-piperazinyl)-6,11-dihydrodibenz[b,e]oxepin], the “Acute toxicity: MLD” value with male dd-strain rats (ip) is recorded as above 100 mg/kg; with male dd-strain rats (po), above 300 mg/kg. The minimal effective concentration was 10 µg/mL in data set [1], 0.3 µg/mL in data set [2] and 50 µg/mL in data set [3]. Moreover, the minimal effective dose in “Antiasthmatic activity” amounted to 25 mg/kg.
`COc1ccc2c(c1)C(N1CCN(C)CC1)c1ccccc1CO2` (stereo not drawn) [Compound 68, 2-methoxy-11-(4-methyl-1-piperazinyl)-6,11-dihydrodibenz[b,e]oxepin]: the “Acute toxicity: MLD” value in the data set with male dd-strain rats (ip) is on record as 100 mg/kg; with male dd-strain rats (po), 200 mg/kg. Further, the minimal effective concentration amounted to 10 µg/mL in data set [1], 3 µg/mL in data set [2] and 100 µg/mL in data set [3]. For the same compound, the minimal effective dose in “Antiasthmatic activity” came to 100 mg/kg.
Take `CN1CCN(C2c3ccccc3COc3ccc(F)cc32)CC1` (stereo not drawn) [Compound 69, 2-fluoro-11-(4-methyl-1-piperazinyl)-6,11-dihydrodibenz[b,e]oxepin]: the “Acute toxicity: MLD” value in the data set on male dd-strain rats (ip) was above 100 mg/kg; with male dd-strain rats (po) it was 100 mg/kg. Besides, the figures for the minimal effective concentration in data set [1], in data set [2] and in data set [3] were 3 µg/mL, 10 µg/mL and 100 µg/mL, respectively. Further, the minimal effective dose in “Antiasthmatic activity” is 100 mg/kg.
With `CN1CCN(C2c3ccccc3COc3ccc(Cl)cc32)CC1` (stereo not drawn) [Compound 70, 2-chloro-11-(4-methyl-1-piperazinyl)-6,11-dihydrodibenz[b,e]oxepin], the figures for the “Acute toxicity: MLD” value in the data set with male dd-strain rats (ip) and in the data set on male dd-strain rats (po) were 100 mg/kg and 200 mg/kg, respectively. Besides, the figures for the minimal effective concentration in data set [1], in data set [2] and in data set [3] were 1 µg/mL, 0.3 µg/mL and 50 µg/mL, respectively. The minimal effective dose in “Antiasthmatic activity” came to 10 mg/kg.
